Results reported in article PMC6222789, “CF3-Substituted Mollugin 2-(4-Morpholinyl)-ethyl ester as a Potential Anti-inflammatory Agent with Improved Aqueous Solubility and Metabolic Stability” (Molecules : A Journal of Synthetic Chemistry and Natural …, 2018).

How the values were obtained:
[1] = Metabolic stability, human liver microsomes; type: in vitro ADME; settings: 1 μM
Method: (§1) Pooled human liver microsomes (150 donor) and dog, rat, mouse liver microsomes were obtained from BD Gentest Co. (Woburn, MA, USA). NADPH regeneration system was obtained from Promega. S-Mephenytoin, 4-hydroxymephenytoin, and 1’-hydroxymidazolam were purchased from Ultrafine Chemical Co. (Manchester, UK). All other chemicals and solvents were of the highest grade available. The metabolic stability assay was performed by incubation of human or selected animal liver microsomes (most often dog, rat and mouse), at 37 °C with a test compound at a final concentration of 1 μM, in the presence of 0.5 mg/mL microsomal protein and NADPH regeneration system, in a total volume of 100 μL of 100 mM phosphate buffer, pH 7.4. The incubation was started by the addition of NADPH regeneration system and terminated with 40 μL of ice-cold acetonitrile at 0 and 30 min. Precipitated proteins were removed by centrifugation at 10,000× g for 5 min at 4 °C. Aliquots of the supernatant were injected onto an LC-MS/MS system. Incubations terminated prior to the addition of NADPH regeneration system (time point 0 min) were used as standards, defined as 100%. Percent of the parent compound remaining was calculated by comparing peak area.

Serum Amyloid A (SAA) = experiment: Serum SAA level in DSS-induced colitis mouse model (ELISA); type: in vivo; settings: for serum SAA level (mSS assay): 4% DSS-induced mouse model, compound 10 μM, ELISA; for effect on serum SAA level: murine model of DSS-induced colitis
Method: The level of Serum Amyloid A (SAA) was measured using a mouse SAA ELISA kit according to the manufacturer’s instructions (E-90SAA, Immunology Consultants Laboratory, Inc., Portland, OR, USA). All samples were assayed in duplicate. The concentrations of SAA were determined by comparison to serial dilutions of purified SAA calibrator.
Figure 2 Analysis of mouse serum amyloid A (SAA) level. Effect of 6d on the level of SAA in the 4% dextran sulfate sodium (DSS)-induced mouse model. The level of SAA in serum was determined by ELISA. The control mice received water + vehicle (water), and the treated groups received 4% DSS + vehicle or DSS with mesalazine (20 mM), 6d (10 μM), or 15c (10 μM). TEXT PRINTED IN THE PICTURE: vehecle: mSS assay (ng/ml): 252.08 | vehecle: mSS assay (ng/ml): 732.93 (4% DSS) | 2: mSS assay (ng/ml): 788.86 (4% DSS) | 6d: mSS assay (ng/ml): 295.77 (4% DSS) | 15c: mSS assay (ng/ml): 300.95 (4% DSS)

[2] = Determination of water solubility at 10 mM; type: physicochemical; settings: aqueous buffer, thermodynamic from solid, sodium phosphate buffer 0.1 M, pH 7.4, room temperature
Method: Water solubility (>10 mM) was determined using the following procedure at room temperature. The test compound was added to a vial containing sodium phosphate buffer, 0.1 M, pH 7.4 (1 mL) to make a 10 mM mixture, and the mixture was equilibrated during 10 min of sonication and then visually checked immediately and after 24 h for any undissolved parts or precipitation of the sample. If no precipitation was shown after 24 h, the aqueous solution was filtered (Syringe filter; PTFE; pore size: 0.45 μm; 25 mm DI) and subjected to LC-MS to confirm the reagent.

[3] = Metabolic stability, mouse liver microsomes; type: in vitro ADME; settings: 30 min, 1 μM
Method: as §1

CYP2D6 = target: T1, CYP2D6 (Homo sapiens, UniProt P10635); experiment: CYP inhibition assay, CYP2D6; type: in vitro ADME; settings: for CYP Inhibition (% of Control) 2D6: 10 μM, CYP activity in presence of inhibitor as % of control, human liver microsomes
T1 construct: from tissue; host or cells: human liver microsomes
Method: (§2) All incubations were performed in duplicate, and the mean values were used for analysis. The assays of phenacetin O-deethylase, tolbutamide 4-hydroxylase, S-mephenytoin 4-hydroxylase, dextromethorphan O-demethylase and midazolam 1′-hydroxylase activities were determined as probe activities for CYP1A2, CYP2C9, CYP2C19, CYP2D6 and CYP3A, respectively, using cocktail incubation and tandem mass spectrometry. Briefly, incubation reaction was performed with 0.25 mg/mL human liver microsomes in a final incubation volume of 100 μL. The incubation medium contained 100 mM phosphate buffer (pH 7.4) with probe substrates. The incubation mixture containing various inhibitors (10 μM) was pre-incubated for 5 min. After pre-incubation, an NADPH regenerating system was added. After incubation at 37 °C for 15 min, the reaction was stopped by placing the incubation tubes on ice and adding 40 μL of ice-cold acetonitrile. The incubation mixtures were then centrifuged at 10,000× g for 5 min at 4 °C. Aliquots of the supernatant were injected onto an LC-MS/MS system. The CYP-mediated activities in the presence of inhibitors were expressed as percentages of the corresponding control values.

CYP2C19 = target: T2, CYP2C19 (Homo sapiens, UniProt P33261); experiment: CYP inhibition assay, CYP2C19; type: in vitro ADME; settings: for CYP Inhibition (% of Control) 2C19: 10 μM, CYP activity in presence of inhibitor as % of control, human liver microsomes
T2 construct: from tissue; host or cells: human liver microsomes
Method: as §2

[4] = Metabolic stability, rat liver microsomes; type: in vitro ADME; settings: 30 min, 1 μM
Method: as §1

[5] = Plasma stability, rat plasma; type: in vitro ADME; settings: 2 h, 37 °C, 1 μM
Method: The plasma stability assay was performed by incubation of human or rat plasma with a test compound in a final concentration of 1 μM for 120 min at 37 °C. The incubation was terminated by addition of 40 μL of ice-cold acetonitrile and vortexing for 5 min. The precipitated proteins were removed by centrifugation at 14,000× g for 5 min at 4 °C. Aliquots of the supernatant were injected onto a Shimadzu Nexera XR LC system. Percentages of the parent compound remaining were calculated by comparing peak areas using the Xcalibur software (version 1.6.1, Waltham, MA, USA).

hERG channel = target: T3, hERG channel (Homo sapiens, UniProt Q12809); experiment: hERG channel binding assay (fluorescence polarization)
T3 construct: purchased Invitrogen PV5365
Method: hERG channel binding assay was performed using Invitrogen’s hERG Fluorescence Polarization Assay kit (PV5365) with Synergy Neo plate reader (BioTek, Winooski, VT, USA). The binding assay was carried out according to the kit manufacturer’s instructions.

T2 sequence (P33261 whole entry): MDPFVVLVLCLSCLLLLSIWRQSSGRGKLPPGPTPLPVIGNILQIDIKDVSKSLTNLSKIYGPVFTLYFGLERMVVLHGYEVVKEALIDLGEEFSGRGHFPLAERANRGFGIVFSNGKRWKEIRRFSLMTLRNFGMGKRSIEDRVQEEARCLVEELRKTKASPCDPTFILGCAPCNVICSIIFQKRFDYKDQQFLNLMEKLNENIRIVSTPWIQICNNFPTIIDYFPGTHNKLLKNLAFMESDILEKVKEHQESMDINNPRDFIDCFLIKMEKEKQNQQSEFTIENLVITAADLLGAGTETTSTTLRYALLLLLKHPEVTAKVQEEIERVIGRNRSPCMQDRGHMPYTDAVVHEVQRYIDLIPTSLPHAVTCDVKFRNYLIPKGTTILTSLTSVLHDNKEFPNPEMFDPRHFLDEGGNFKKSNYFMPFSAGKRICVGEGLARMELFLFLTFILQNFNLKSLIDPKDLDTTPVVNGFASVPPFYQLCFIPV
T1 sequence (P10635 whole entry): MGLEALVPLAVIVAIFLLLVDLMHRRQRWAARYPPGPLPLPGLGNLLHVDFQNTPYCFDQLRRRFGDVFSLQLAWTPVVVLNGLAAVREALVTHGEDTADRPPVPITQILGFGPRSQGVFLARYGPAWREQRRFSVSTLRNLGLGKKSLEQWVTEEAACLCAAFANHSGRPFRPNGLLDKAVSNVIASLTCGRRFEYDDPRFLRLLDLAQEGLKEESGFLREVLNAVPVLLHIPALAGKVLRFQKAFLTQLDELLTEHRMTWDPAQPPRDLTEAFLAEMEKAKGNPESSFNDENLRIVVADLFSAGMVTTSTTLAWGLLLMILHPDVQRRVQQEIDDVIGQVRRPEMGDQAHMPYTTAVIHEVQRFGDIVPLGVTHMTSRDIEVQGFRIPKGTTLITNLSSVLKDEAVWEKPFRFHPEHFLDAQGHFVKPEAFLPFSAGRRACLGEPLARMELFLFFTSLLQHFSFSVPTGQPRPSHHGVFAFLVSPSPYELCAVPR
T3 sequence (Q12809 whole entry): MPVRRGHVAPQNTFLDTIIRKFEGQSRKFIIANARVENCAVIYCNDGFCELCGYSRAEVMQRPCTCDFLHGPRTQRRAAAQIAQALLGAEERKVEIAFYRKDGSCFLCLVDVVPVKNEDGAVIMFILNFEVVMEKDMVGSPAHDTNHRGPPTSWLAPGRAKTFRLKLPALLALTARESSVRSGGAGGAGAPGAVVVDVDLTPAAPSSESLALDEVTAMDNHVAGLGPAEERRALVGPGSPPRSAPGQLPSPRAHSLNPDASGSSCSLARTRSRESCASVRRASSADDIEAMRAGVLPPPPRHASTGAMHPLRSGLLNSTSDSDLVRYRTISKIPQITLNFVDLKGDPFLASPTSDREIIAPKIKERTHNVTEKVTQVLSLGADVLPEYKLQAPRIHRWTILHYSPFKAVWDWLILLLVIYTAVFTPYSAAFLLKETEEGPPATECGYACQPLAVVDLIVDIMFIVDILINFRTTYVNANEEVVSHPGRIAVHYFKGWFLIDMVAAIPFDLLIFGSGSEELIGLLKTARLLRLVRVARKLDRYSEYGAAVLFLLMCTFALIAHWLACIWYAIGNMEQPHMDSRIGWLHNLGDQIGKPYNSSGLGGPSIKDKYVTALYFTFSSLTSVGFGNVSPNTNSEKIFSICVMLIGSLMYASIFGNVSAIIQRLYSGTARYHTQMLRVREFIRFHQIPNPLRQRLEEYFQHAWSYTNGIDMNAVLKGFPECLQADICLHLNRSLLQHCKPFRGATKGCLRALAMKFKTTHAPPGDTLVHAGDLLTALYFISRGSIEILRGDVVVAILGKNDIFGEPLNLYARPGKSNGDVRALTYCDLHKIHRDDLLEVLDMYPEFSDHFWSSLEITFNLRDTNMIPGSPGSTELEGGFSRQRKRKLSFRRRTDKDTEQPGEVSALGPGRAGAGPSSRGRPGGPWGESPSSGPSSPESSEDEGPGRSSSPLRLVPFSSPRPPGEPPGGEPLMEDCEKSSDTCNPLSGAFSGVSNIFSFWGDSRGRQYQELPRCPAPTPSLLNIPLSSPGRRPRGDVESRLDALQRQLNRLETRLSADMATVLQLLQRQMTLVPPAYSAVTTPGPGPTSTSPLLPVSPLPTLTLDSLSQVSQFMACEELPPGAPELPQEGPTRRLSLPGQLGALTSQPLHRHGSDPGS

Structure (SMILES)	Metabolic Stability (% Remain, 30 min) Human [1] [% Remain]	serum SAA level (mSS assay) (Serum Amyloid A (SAA)) [ng/mL]	effect on serum SAA level (Serum Amyloid A (SAA))	solubility at 24 h [2] [mM]	Metabolic Stability (% Remain, 30 min) Mouse [3] [% Remain]	CYP Inhibition (% of Control) 2D6 (CYP2D6)	inhibition at 15 min, 10 μM (CYP2D6; human, liver microsomes, pH 7.4, probe dextromethorphan (O-demethylation), at 10 μM drug concentration, read-out: % inhibition of CYP 2D6) [%]	CYP Inhibition (% of Control) 2C19 (CYP2C19)	inhibition at 15 min, 10 μM (CYP2C19; human, liver microsomes, pH 7.4, probe S-mephenytoin (4-hydroxylation), at 10 μM drug concentration, read-out: % inhibition of CYP 2C19) [%]	Metabolic Stability (% Remain, 30 min) Rat [4] [% Remain]	Plasma Stability (% Remain, 2 h) Rat [5] [% Remain]	IC50 (hERG channel) [µM]
CC1(C)C=Cc2c(C(=O)OCCN3CCOCC3)c(O)c3cc(C(F)(F)F)ccc3c2O1 [15c, 2-Morpholinoethyl 6-hydroxy-2,2-dimethyl-8-(trifluoromethyl)-2H-benzo[h]chromene-5-carboxylate]	84	300.95	reduces serum SAA level	> 10	45	92 % of Control	< 50	93 % of Control	< 50	52	51	
CC1(C)C=Cc2c(C(=O)OCCN3CCOCC3)c(O)c3ccccc3c2O1 [6d, 2-Morpholinoethyl 6-hydroxy-2,2-dimethyl-2H-benzo[h]chromene-5-carboxylate]	83	295.77	reduces serum SAA level		10	75 % of Control		68 % of Control		20	97	> 10
